Among the data in patent US20250206732A1, “COMPOUNDS AND METHODS FOR THE TARGETED DEGRADATION OF KRAS” (Arvinas Operations, Inc., priority 2022, published 2025) are Dmax and DC50 values, retold here.

Usually Dmax stands for the largest share of the target that was removed. High values mean deep degradation, low ones shallow degradation. In general, DC50 refers to the midpoint of the concentration-degradation curve. Read a high DC50 as a less potent degrader.

Some results are limits rather than exact numbers.

The target of this assay is T1, AsPC-1 HiBiT-KRASG12D (Homo sapiens, UniProt P01116, G12D).
T1 construct: insert the HiBiT tag onto the N-terminus of one or more of the endogenous KRAS alleles; endogenous in cells; host or cells: AsPC-1 (ATCC CRL-1682), CRISPR-Cas9 knock-in clone, one tagged allele
T1 sequence (P01116 1-188 isoform P01116-2 G12D): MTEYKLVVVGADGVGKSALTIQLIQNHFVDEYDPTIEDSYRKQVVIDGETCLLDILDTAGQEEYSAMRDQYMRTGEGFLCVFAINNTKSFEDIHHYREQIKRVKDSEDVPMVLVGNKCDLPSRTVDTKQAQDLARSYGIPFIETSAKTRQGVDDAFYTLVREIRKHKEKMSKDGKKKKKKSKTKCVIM
Briefly: HiBiT degradation assay (G12D), AsPC-1 HiBiT-KRASG12D cells. In kind it is cell-based. The note with it: 24 hours treatment; for Dmax: ASPC1, AsPC-1 HiBiT-KRASG12D cells, maximum degradation observed; for DC50: AsPC-1 HiBiT-KRASG12D cells, HiBiT luminescence. In short, it runs like this: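 AsPC-1 cells carried a CRISPR knock-in of an N-terminal HiBiT tag on endogenous KRAS G12D. After 24 h compound treatment at 37 °C (triplicate), viability was read by alamar blue (4 h, fluorescence, normalized to DMSO). HiBiT-KRAS levels were then measured by Nano-Glo HiBiT lytic luminescence after 45 min at room temperature.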

As to `CCc1cccc2cc(O)cc(-c3ncc4c(N5CCCCCC5)nc(OC[C@]56CCCN5[C@H](COc5cc([C@H](C(=O)N7C[C@H](O)C[C@H]7C(=O)N[C@@H](C)c7ccc(-c8scnc8C)cc7)C(C)C)on5)CC6)nc4c3F)c12` [Compound 208, (2S,4R)-1-[(2R)-2-(3-{[(3S,7aR)-7a-({[4-(azepan-1-yl)-7-(8-ethyl-3-hydroxynaphthalen-1-yl)-8-fluoropyrido[4,3-d]pyrimidin-2-yl]oxy}methyl)-hexahydro-1H-pyrrolizin-3-yl]methoxy}-1,2-oxazol-5-yl)-3-methylbutanoyl]-4-hydroxy-N-[(1S)-1-[4-(4-methyl-1,3-thiazol-5-yl)phenyl]ethyl]pyrrolidine-2-carboxamide], the Dmax fell in the range of 80 to 100% and the DC50 is < 0.6 µM.
Consider `CCc1cccc2cc(O)cc(-c3ncc4c(N5CC6CCC(C5)N6)nc(OCCN5CCC(F)(CN6CCN(c7cc([C@H](C(=O)N8C[C@H](O)C[C@H]8C(=O)N[C@@H](C)c8ccc(-c9scnc9C)cc8)C(C)C)on7)[C@@H](C)C6)CC5)nc4c3F)c12` [Compound 209, (2S,4R)-1-[(2R)-2-{3-[(2S)-4-[(1-{2-[(4-{3,8-diazabicyclo[3.2.1]octan-3-yl}-7-(8-ethyl-3-hydroxynaphthalen-1-yl)-8-fluoropyrido[4,3-d]pyrimidin-2-yl)oxy]ethyl}-4-fluoropiperidin-4-yl)methyl]-2-methylpiperazin-1-yl]-1,2-oxazol-5-yl}-3-methylbutanoyl]-4-hydroxy-N-[(1S)-1-[4-(4-methyl-1,3-thiazol-5-yl)phenyl]ethyl]pyrrolidine-2-carboxamide], for which the maximal degradation (Dmax) is 80 to 100% and the DC50 is < 0.6 µM.
In the same order, the values of `CCc1cccc2cc(O)cc(-c3ncc4c(N5CC6CCC(C5)N6)nc(OCCN5CCC(CC6CCN(c7cc([C@@H](C(=O)N8C[C@H](O)C[C@H]8C(=O)N[C@@H](C)c8ccc(-c9ccnn9C)cc8)C(C)C)on7)CC6)CC5)nc4c3F)c12` [Compound 210, (2S,4R)-1-[(2S)-2-(3-{4-[(1-{2-[(4-{3,8-diazabicyclo[3.2.1]octan-3-yl}-7-(8-ethyl-3-hydroxynaphthalen-1-yl)-8-fluoropyrido[4,3-d]pyrimidin-2-yl)oxy]ethyl}piperidin-4-yl)methyl]piperidin-1-yl}-1,2-oxazol-5-yl)-3-methylbutanoyl]-4-hydroxy-N-[(1S)-1-[4-(1-methyl-1H-pyrazol-5-yl)phenyl]ethyl]pyrrolidine-2-carboxamide] are 20 to 60% and 0.6 to 1 µM.
Consider `CCc1cccc2cc(O)cc(-c3ncc4c(N5CC6CCC(C5)N6)nc(OCCN5CCC(CN6CCN(c7cc([C@H](C(=O)N8C[C@H](O)C[C@H]8C(=O)N[C@@H](C)c8ccc(-c9scnc9C)cc8)C(C)C)on7)CC6)CC5)nc4c3F)c12` [Compound 211, (2S,4R)-1-[(2R)-2-(3-{4-[(1-{2-[(4-{3,8-diazabicyclo[3.2.1]octan-3-yl}-7-(8-ethyl-3-hydroxynaphthalen-1-yl)-8-fluoropyrido[4,3-d]pyrimidin-2-yl)oxy]ethyl}piperidin-4-yl)methyl]piperazin-1-yl}-1,2-oxazol-5-yl)-3-methylbutanoyl]-4-hydroxy-N-[(1S)-1-[4-(4-methyl-1,3-thiazol-5-yl)phenyl]ethyl] pyrrolidine-2-carboxamide], for which the Dmax lay in the range of 80 to 100% and the DC50 is < 0.6 µM.
In the same order, the values of `CCc1cccc2cc(O)cc(-c3ncc4c(N5CC6CCC(C5)N6)nc(OCCN5CCC(CC6CN(c7cc([C@H](C(=O)N8C[C@H](O)C[C@H]8C(=O)N[C@@H](C)c8ccc(-c9ccnn9C)cc8)C(C)C)on7)C6)CC5)nc4c3F)c12` [Compound 212, (2S,4R)-1-[(2R)-2-(3-{3-[(1-{2-[(4-{3,8-diazabicyclo[3.2.1]octan-3-yl}-7-(8-ethyl-3-hydroxynaphthalen-1-yl)-8-fluoropyrido[4,3-d]pyrimidin-2-yl)oxy]ethyl}piperidin-4-yl)methyl]azetidin-1-yl}-1,2-oxazol-5-yl)-3-methylbutanoyl]-4-hydroxy-N-[(1S)-1-[4-(1-methyl-1H-pyrazol-5-yl)phenyl]ethyl]pyrrolidine-2-carboxamide] are 80 to 100% and < 0.6 µM.
